Results reported in ChEMBL document CHEMBL2074492, “Selective substrates for non-neuronal monoamine transporters” (Mol Pharmacol, 1999).

T1: Solute carrier family 22 member 2 (Rattus norvegicus, UniProt Q9R0W2)
T1 sequence (Q9R0W2 whole entry): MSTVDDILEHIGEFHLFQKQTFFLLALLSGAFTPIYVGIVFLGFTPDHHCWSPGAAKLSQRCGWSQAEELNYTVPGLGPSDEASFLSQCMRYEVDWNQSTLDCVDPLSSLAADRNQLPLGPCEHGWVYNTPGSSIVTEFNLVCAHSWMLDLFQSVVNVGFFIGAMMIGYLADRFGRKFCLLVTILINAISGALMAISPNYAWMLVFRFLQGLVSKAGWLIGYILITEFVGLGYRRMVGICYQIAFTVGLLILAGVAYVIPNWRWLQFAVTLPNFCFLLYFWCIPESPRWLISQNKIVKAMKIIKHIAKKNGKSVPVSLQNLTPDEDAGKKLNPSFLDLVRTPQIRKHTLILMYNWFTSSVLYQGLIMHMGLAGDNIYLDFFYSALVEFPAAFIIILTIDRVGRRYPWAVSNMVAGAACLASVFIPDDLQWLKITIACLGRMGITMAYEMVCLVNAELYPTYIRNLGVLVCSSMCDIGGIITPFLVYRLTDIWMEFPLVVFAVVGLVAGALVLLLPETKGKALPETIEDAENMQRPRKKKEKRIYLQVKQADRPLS

T2: Solute carrier family 22 member 1 (Rattus norvegicus, UniProt Q63089)
T2 sequence (Q63089 whole entry): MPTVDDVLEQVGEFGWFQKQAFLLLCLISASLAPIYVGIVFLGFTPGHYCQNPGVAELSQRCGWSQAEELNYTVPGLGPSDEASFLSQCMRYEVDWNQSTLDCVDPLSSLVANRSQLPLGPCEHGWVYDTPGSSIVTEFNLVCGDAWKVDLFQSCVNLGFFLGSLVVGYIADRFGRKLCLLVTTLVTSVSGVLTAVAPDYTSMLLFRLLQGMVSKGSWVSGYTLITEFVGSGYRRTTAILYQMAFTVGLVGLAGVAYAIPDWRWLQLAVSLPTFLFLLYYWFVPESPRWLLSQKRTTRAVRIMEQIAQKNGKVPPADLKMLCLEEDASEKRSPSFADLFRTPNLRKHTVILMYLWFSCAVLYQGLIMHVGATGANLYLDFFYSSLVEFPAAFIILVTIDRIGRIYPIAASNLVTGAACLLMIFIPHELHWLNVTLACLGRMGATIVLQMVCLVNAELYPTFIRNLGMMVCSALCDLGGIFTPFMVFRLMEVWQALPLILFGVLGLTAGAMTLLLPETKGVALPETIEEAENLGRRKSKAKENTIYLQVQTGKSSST

T3: Solute carrier family 22 member 3 (Homo sapiens, UniProt O75751)
T3 sequence (O75751 whole entry): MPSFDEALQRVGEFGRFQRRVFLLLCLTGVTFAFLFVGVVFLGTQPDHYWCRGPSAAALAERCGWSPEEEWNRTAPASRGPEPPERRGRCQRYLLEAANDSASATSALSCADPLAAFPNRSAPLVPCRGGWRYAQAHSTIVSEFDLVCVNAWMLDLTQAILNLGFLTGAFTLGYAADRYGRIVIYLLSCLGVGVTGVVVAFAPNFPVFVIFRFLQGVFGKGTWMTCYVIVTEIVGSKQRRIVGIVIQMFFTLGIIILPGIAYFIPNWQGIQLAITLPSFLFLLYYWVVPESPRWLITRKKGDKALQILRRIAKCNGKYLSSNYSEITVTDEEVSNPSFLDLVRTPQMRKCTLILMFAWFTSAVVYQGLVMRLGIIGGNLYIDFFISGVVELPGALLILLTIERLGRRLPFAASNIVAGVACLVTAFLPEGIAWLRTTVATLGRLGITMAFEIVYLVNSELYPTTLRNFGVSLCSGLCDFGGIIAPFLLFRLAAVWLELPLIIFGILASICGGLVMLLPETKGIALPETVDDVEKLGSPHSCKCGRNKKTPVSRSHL


How the values were obtained:
[1] = target: T1, Solute carrier family 22 member 2; assay: (§1) TP_TRANSPORTER: uptake in OCT2-expressing HEK293 cells; type: functional, cell-based; conditions: human
[2] = target: T1, Solute carrier family 22 member 2; assay: TP_TRANSPORTER: inhibition of MPP+ uptake in OCT2-expressing HEK293 cells; type: functional, cell-based
[3] = target: T2, Solute carrier family 22 member 1; assay: TP_TRANSPORTER: inhibition of MPP+ uptake in OCT1-expressing HEK293 cells
[4] = target: T3, Solute carrier family 22 member 3; assay: TP_TRANSPORTER: inhibition of MPP+ uptake in OCT3-expressing HEK293 cells
[5] = substrate: C[n+]1ccc(-c2ccccc2)cc1; assay: as §1; type: functional, cell-based
[6] = substrate: N=C(N)N; assay: as §1; type: functional, cell-based

Molecule | Activity [1] | Ki [2] [µM] | further results
CN1CC(=O)NC1=N [CREATININE] | substrate [+] | – | –
N=C(N)N [GUANIDINE] | – | 280 | –
NCCc1c[nH]cn1 [HISTAMINE] | – | 390 | Ki [3]: 1400 µM; Ki [4]: 140 µM
CC[N+](CC)(CC)CC [TETRYLAMMONIUM] | substrate [+] | – | –
Solute carrier family 22 member 2 (Rattus norvegicus) (protein) MSTVDDILEHIGEFHLFQKQTFFLLALLSGAFTPIYVGIVFLGFTPDHHCWSPGAAKLSQRCGWSQAEELNYTVPGLGPSDEASFLSQCMRYEVDWNQSTLDCVDPLSSLAADRNQLPLGPCEHGWVYNTPGSSIVTEFNLVCAHSWMLDLFQSVVNVGFFIGAMMIGYLADRFGRKFCLLVTILINAISGALMAISPNYAWMLVFRFLQGLVSKAGWLIGYILITEFVGLGYRRMVGICYQIAFTVGLLILAGVAYVIPNWRWLQFAVTLPNFCFLLYFWCIPESPRWLISQNKIVKAMKIIKHIAKKNGKSVPVSLQNLTPDEDAGKKLNPSFLDLVRTPQIRKHTLILMYNWFTSSVLYQGLIMHMGLAGDNIYLDFFYSALVEFPAAFIIILTIDRVGRRYPWAVSNMVAGAACLASVFIPDDLQWLKITIACLGRMGITMAYEMVCLVNAELYPTYIRNLGVLVCSSMCDIGGIITPFLVYRLTDIWMEFPLVVFAVVGLVAGALVLLLPETKGKALPETIEDAENMQRPRKKKEKRIYLQVKQADRPLS | – | – | Km [5]: 9.4 µM; Km [6]: 730 µM
